This passage reports IC50 results from patent publication US9682995B2, “Amino-substituted isothiazoles” (BAYER PHARMA AKTIENGESELLSCHAFT, priority 2013, dated 2017).

Each structure is given as a SMILES string.

For assay [1], the system named is spindle assembly checkpoint. Kind of assay: SAC-Formation - Paclitaxel-Induced Assay. Particulars: Homo sapiens; HeLa cells, paclitaxel 0.05 μM, 24 h, phosphorylated histone H3 on serine 10. It counts as cell-based. An outline of the steps:
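HeLa cells were plated overnight, then given paclitaxel (0.05 μM final) plus compound (0.005-20 μM, 0.5% DMSO) for 24 h at 37° C. Fixed cells were stained for phospho-histone H3 Ser10 and with Hoechst, then imaged to give mitotic index. A fall in mitotic cells marks SAC breakthrough, and values were fit with a four-parameter Hill equation.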

The target of the next assay is human Bub1 (Homo sapiens (Human), UniProt O43683). The assay can be described thus: Bub1 kinase assay (TR-FRET). The format is biochemical. As to conditions: 10 μM ATP; read-out: Bub1 avg (IC50 [mol/l]). An outline of the steps:
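His6-tagged human Bub1 catalytic domain (aa 704-1085, insect-cell expressed, ~200 ng/ml) preincubated with compound 15 min, then reacted 60 min at 22 °C with 10 μM ATP and 1 μM biotinylated peptide (final) in pH 7.5 Tris buffer. Phosphopeptide detected by TR-FRET 665/620 ratio, normalised to no-inhibitor and no-enzyme controls.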

Chain of human Bub1 (O43683 704-1085): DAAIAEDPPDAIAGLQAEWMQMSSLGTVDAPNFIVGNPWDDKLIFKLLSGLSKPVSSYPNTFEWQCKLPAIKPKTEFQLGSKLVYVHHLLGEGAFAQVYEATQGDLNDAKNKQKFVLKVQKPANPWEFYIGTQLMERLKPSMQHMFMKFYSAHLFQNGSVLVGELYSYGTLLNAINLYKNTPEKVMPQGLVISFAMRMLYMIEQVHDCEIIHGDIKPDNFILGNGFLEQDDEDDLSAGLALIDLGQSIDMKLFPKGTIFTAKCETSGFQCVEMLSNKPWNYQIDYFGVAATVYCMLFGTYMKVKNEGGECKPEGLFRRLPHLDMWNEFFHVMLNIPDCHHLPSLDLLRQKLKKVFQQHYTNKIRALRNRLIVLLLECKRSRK

In the case of `COc1ccc(NC(=O)c2c(C)nsc2Nc2cnc(C(F)(F)F)cn2)cn1` [Example 85, N-(6-methoxypyridin-3-yl)-3-methyl-5-{[5-(trifluoromethyl)pyrazin-2-yl]amino}-1,2-thiazole-4-carboxamide], the IC50 is 0.052 µM in assay [1] and more than 20 µM at human Bub1.
Turning to `CCc1ccccc1NC(=O)c1c(C)nsc1Nc1cnc2cc(Cl)ccc2n1` [Example 86, 5-[(6-Chloroquinoxalin-2-yl)amino]-N-(2-ethylphenyl)-3-methyl-1,2-thiazole-4-carboxamide], the IC50 was 0.49 µM in assay [1] and more than 20 µM at human Bub1.
Take `COc1ccc2nc(Nc3snc(C)c3C(=O)Nc3ccc(OC)nc3)sc2c1` [Example 87, 5-[(6-Methoxy-1,3-benzothiazol-2-yl)amino]-N-(6-methoxypyridin-3-yl)-3-methyl-1,2-thiazole-4-carboxamide]: the figures for the IC50 (in assay [1]; on human Bub1) were 0.35 µM and 11 µM, respectively.
Take `COc1ccc(NC(=O)c2c(C)nsc2Nc2nc3ccc(F)cc3s2)cn1` [Example 88, 5-[(6-Fluoro-1,3-benzothiazol-2-yl)amino]-N-(6-methoxypyridin-3-yl)-3-methyl-1,2-thiazole-4-carboxamide]: the IC50 in assay [1] was determined as 1.1 µM; at human Bub1, 17 µM.
The corresponding values for `COc1ccc(NC(=O)c2c(C)nsc2Nc2nc3cccnc3s2)cn1` [Example 89, N-(6-Methoxypyridin-3-yl)-3-methyl-5-([1,3]thiazolo[5,4-b]pyridin-2-ylamino)-1,2-thiazole-4-carboxamide] are 2.3 µM and 0.21 µM.
Take `COc1ccc(NC(=O)c2c(C)nsc2Nc2nc3ccc(C)cc3s2)cn1` [Example 90, N-(6-Methoxypyridin-3-yl)-3-methyl-5-[(6-methyl-1,3-benzothiazol-2-yl)amino]-1,2-thiazole-4-carboxamide]: the IC50 was 2.3 µM in assay [1] and more than 20 µM at human Bub1.
Take `CCc1ccccc1NC(=O)c1c(C)nsc1Nc1nc(C(=O)OC)co1` [Example 91, Methyl 2-({4-[(2-ethylphenyl)carbamoyl]-3-methyl-1,2-thiazol-5-yl}amino)-1,3-oxazole-4-carboxylate]: the IC50 in assay [1] was 1.4 µM; on human Bub1 it was more than 20 µM.
In the case of `CCOC(=O)c1cnc(Nc2snc(C)c2C(=O)Nc2ccccc2CC)s1` [Example 92, Ethyl 2-({4-[(2-ethylphenyl)-carbamoyl]-3-methyl-1,2-thiazol-5-yl}amino)-1,3-thiazole-5-carboxylate], the IC50 was 5.6 µM in assay [1] and more than 20 µM on human Bub1.
The corresponding values for `COc1ccc(NC(=O)c2c(C)nsc2Nc2ncc(C(=O)N3CCOCC3)s2)cc1F` [Example 93, N-(3-Fluoro-4-methoxyphenyl)-3-methyl-5-{[5-(morpholin-4-ylcarbonyl)-1,3-thiazol-2-yl]amino}-1,2-thiazole-4-carboxamide] are 8 µM and more than 20 µM.
The corresponding values for `COc1ccc(NC(=O)c2c(C)nsc2Nc2cnc3ccccc3n2)cn1` [Example 94, N-(6-Methoxypyridin-3-yl)-3-methyl-5-(quinoxalin-2-ylamino)-1,2-thiazole-4-carboxamide] are 5.6 µM and more than 20 µM.
The corresponding values for `CCOC(=O)c1sc(Nc2snc(C)c2C(=O)Nc2ccc(Cl)c(F)c2)nc1C` [Example 95, Ethyl 2-({4-[(4-chloro-3-fluoro-phenyl)carbamoyl]-3-methyl-1,2-thiazol-5-yl}amino)-4-methyl-1,3-thiazole-5-carboxylate] are 0.51 µM and more than 20 µM.
